Experimental data as given in ChEMBL document CHEMBL1201862, “PubChem BioAssay data set” (2004).
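All cell lines were grown in 96-well plates and treated with compound for 48 hours. Here, GI50 denotes the concentration required for 50% inhibition of growth.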 The source made the active and inactive calls. Rule as the data show it: active = GI50 up to about 1.1 µM and inactive = higher.

How the values were obtained:
Assay in all cases: growth of human tumour cells (NCI), 48 h
[1] = tested on: SF-539
[2] = tested on: NCI-H460
[3] = tested on: NCI-H23
[4] = tested on: OVCAR-8
[5] = tested on: HCT-116
[6] = tested on: SNB-75
[7] = tested on: LOX IMVI
[8] = tested on: U-251
[9] = tested on: CAKI-1
[10] = tested on: EKVX
[11] = tested on: UO-31
[12] = tested on: TK-10
[13] = tested on: HCT-15
[14] = tested on: COLO 205
[15] = tested on: SK-MEL-28
[16] = tested on: KM-20L2
[17] = tested on: A549
[18] = tested on: SNB-78
[19] = tested on: 786-0
[20] = tested on: OVCAR-5
[21] = tested on: M14
[22] = tested on: RXF 631
[23] = tested on: SK-MEL-5
[24] = tested on: UACC-62
[25] = tested on: SN12C
[26] = tested on: ACHN
[27] = tested on: Malme-3M
[28] = tested on: HCC 2998
[29] = tested on: OVCAR-3
[30] = tested on: KM12
[31] = tested on: DMS-273
[32] = tested on: SF-268
[33] = tested on: CCRF-CEM
[34] = tested on: SF-295
[35] = tested on: OVCAR-4
[36] = tested on: DLD-1
[37] = tested on: MOLT-4
[38] = tested on: HOP-18
[39] = tested on: SNB-19
[40] = tested on: HT-29
[41] = tested on: K562
[42] = tested on: IGROV-1
[43] = tested on: SW-620
[44] = tested on: HL-60
[45] = tested on: HOP-62
[46] = tested on: LXFL 529
[47] = tested on: A498
[48] = tested on: NCI-H522
[49] = tested on: DMS-114
[50] = tested on: UACC-257
[51] = tested on: NCI-H226
[52] = tested on: HOP-92
[53] = tested on: RXF 393
[54] = tested on: SR
[55] = tested on: XF498
[56] = tested on: RPMI-8226
[57] = tested on: SK-OV-3
[58] = tested on: SK-MEL-2

Measured: GI50

CCOC(=O)c1[nH]c(CN(C)Cc2[nH]c(C(=O)OCC)c(C)c2C(=O)OCc2ccccc2)c(C(=O)OCc2ccccc2)c1C
8.3 µM: [13]
inactive: [1] 8.47 µM | [2] 5.58 µM | [3] 12.3 µM | [4] 24 µM | [5] 7 µM | [6] 3.3 µM | [7] 4.75 µM | [8] 12.1 µM | [9] 2.85 µM | [10] 12.9 µM | [11] 4.09 µM | [12] 16.7 µM | [14] 9.08 µM | [15] 16.9 µM | [16] 3.04 µM | [17] 16.6 µM | [18] > 100 µM | [19] 11.2 µM | [20] 6.81 µM | [21] 4.99 µM | [22] 4.11 µM | [23] 6.44 µM | [24] 20.4 µM | [25] 6.19 µM | [26] 18.4 µM | [27] 40.3 µM | [28] 14.4 µM | [29] 10.4 µM | [30] 7.45 µM | [31] 10 µM | [32] 10.7 µM | [33] > 100 µM | [34] 19.3 µM | [35] 6.24 µM | [36] 33.9 µM | [37] > 100 µM | [38] > 100 µM | [39] 12.9 µM | [40] 2.77 µM | [41] 6.17 µM | [42] 27.4 µM | [43] 12.7 µM | [44] 3.96 µM | [45] 13 µM | [46] 13.1 µM | [47] 15 µM | [48] 6.87 µM | [49] 12.7 µM | [50] 21.4 µM | [51] 12.7 µM | [52] 2.42 µM | [53] 3.87 µM | [54] > 100 µM

CC(=O)Nc1[nH]n(C)c(=O)c1-c1nnc(C)s1
inactive: [1] > 100 µM | [2] > 100 µM | [3] > 100 µM | [4] > 100 µM | [5] > 100 µM | [6] > 100 µM | [7] > 100 µM | [8] > 100 µM | [9] > 100 µM | [10] > 100 µM | [11] > 100 µM | [12] > 100 µM | [14] > 100 µM | [15] > 100 µM | [55] > 100 µM | [16] > 100 µM | [17] > 100 µM | [18] > 100 µM | [19] > 100 µM | [20] > 100 µM | [21] > 100 µM | [22] > 100 µM | [23] > 100 µM | [56] > 100 µM | [57] > 100 µM | [25] > 100 µM | [26] > 100 µM | [27] > 100 µM | [28] > 100 µM | [29] > 100 µM | [30] > 100 µM | [31] > 100 µM | [32] > 100 µM | [33] > 100 µM | [35] > 100 µM | [36] > 100 µM | [37] > 100 µM | [39] > 100 µM | [40] > 100 µM | [41] > 100 µM | [42] > 100 µM | [43] > 100 µM | [44] > 100 µM | [45] > 100 µM | [46] > 100 µM | [47] > 100 µM | [48] > 100 µM | [49] > 100 µM | [50] > 100 µM | [51] > 100 µM | [52] > 100 µM | [53] > 100 µM | [58] > 100 µM | [54] > 100 µM
> 100 µM: [13]
